Results on 6 compounds are retold here after US10155021B2, “Antimicrobial 4-oxoquinolizines” (Emergent Product Development Gaithersburg Inc., priority 2011, dated 2018).

Values after ≈ are worked out from the molar mass of the structure shown.

Experiment [1] concerns E. cloacae 13047. Put plainly: MIC, standard panel of Gram-positive and Gram-negative bacteria (CLSI). It counts as cell-based, Enterobacter cloacae. As to conditions: Enterobacter cloacae, 13047; CAMHB; read-out: MIC E. cloacae 13047.
The subject of experiment [2] is E. faecalis 29212. The experiment is described as above. In kind it is cell-based, Enterococcus faecalis. As to conditions: Enterococcus faecalis, 29212; CAMHB; read-out: MIC E. faecalis 29212.
Experiment [3] has as its system S. pneumoniae 49619. Nature of the experiment: MIC, panel of quinolone-resistant strains (CLSI). The note with it: Streptococcus pneumoniae, LEV S. In kind it is cell-based.
Experiment [4] relates to GN10 Pseudomonas aeruginosa. Nature of the experiment: Pre-chequerboard MIC, broth microdilution (Example 6). In kind it is cell-based. The note with it: ATCC 27853 / GN10, ATCC 27853, antibiotic susceptible. The text has this: (§1) A chequerboard technique was used to identify possible synergistic or antagonistic interactions between the 4-oxoquinolizines compounds, levofloxacin and polymyxin B. Levofloxacin was included as a control. […] Final dilutions were made in Mueller-Hinton broth, the specific test medium used for MIC determinations according to CLSI guidelines (CLSI. Methods for Dilution Antimicrobial Susceptibility Tests for Bacteria That Grow Aerobically; Approved Standard-Eighth Edition (2009). CLSI Document M07-A8. CLSI, Wayne, Pa. 19087-1898, USA.). The test medium used was a cation-adjusted Mueller-Hinton Broth II (Becton Dickinson UK Ltd., Oxford Science Park, Oxford, UK, OX4 4DQ).
(§2) The compounds 2, 33 and 35, as well as levofloxacin were tested in combination with polymyxin B on the following isolates: GN31 Acinetobacter baumannii—antibiotic susceptible clinical isolate, GN52 Acinetobacter baumannii—levofloxacin resistant clinical isolate, GN56 Acinetobacter baumannii—levofloxacin resistant clinical isolate, GN48 Klebsiella pneumoniae—NCTC 13443—NDM-1-metallo-R-lactamase and GN10 Pseudomonas aeruginosa—ATCC 27853—antibiotic susceptible reference isolate. All isolates are from the collection maintained at Quotient Bioresearch Ltd., Cambridge, UK.
(§3) The MIC values for the compounds and polymyxin B and levofloxacin were determined by broth microdilution following CLSI guidelines, and the MICs of agents in combination were determined as described by Pillai et.al (Pillai S K, Moellering R C Jr, Eliopoulis G M; Antimicrobial Combinations in Antibiotics in Laboratory Medicine 5th Edition (V. Lorian Ed) (2005) p 365-440). Initial MIC results were used to determine the microtiter plate patterns for the chequerboards. A suitable doubling dilution concentration range was selected such that the combination antibiotic range was at least two concentrations above and four concentrations below the MIC for each isolate. A fixed range of 0.008 to 8 mg/L was tested for polymyxin B except in the case of A. baumannii GN31 where a range of 0.004 to 4 mg/L was tested when in combination with the compounds 2, 33 and 35 as well as levofloxacin.

The subject of experiment [5] is GN48 Klebsiella pneumoniae. Described as above. In kind it is cell-based. As to conditions: GN48 / NCTC 13443, NCTC 13443, NDM-1.
Text: as §1, §2, §3

The test system of experiment [6] is GN52 Acinetobacter baumannii. The description is as above. In kind it is cell-based. As to conditions: levofloxacin resistant clinical isolate.
Text: as §1, §2, §3

The test system of experiment [7] is GN48 Klebsiella pneumoniae. Nature of the experiment: Chequerboard synergy with polymyxin B (FICI). In kind it is cell-based. The note with it: combination with polymyxin B.
Text: as §1, §2, §3
(§4) From the raw data, fractional inhibitory concentration indices (FICI) were determined for the compounds of the invention and levofloxacin together with polymyxin B for each isolate as follows: FICI=FICX+FICY Where,
(§5) FICX=concentration of the combination antibiotic in a particular row÷MIC of the combination drug alone
(§6) FICY=MIC of polymyxin B in combination÷MIC of the polymyxin B alone
(§7) Additionally isobolograms were created to represent the same data visually. Here, the MIC of polymyxin B was plotted against every concentration of the combination antibiotic up to the MIC.

Experiment [8] has as its system B. anthracis. Nature of the experiment: microbe, parasite or virus in culture. In kind it is cell-based. As to conditions: Bacillus anthracis, read-out: MIC B. anthracis.
The test system of experiment [9] is F. tularensis. Put plainly: microbe, parasite or virus in culture. It counts as cell-based. As to conditions: Francisella tularensis, read-out: MIC F. tularensis.
Experiment [10] has as its system B. abortus. Nature of the experiment: microbe, parasite or virus in culture. It counts as cell-based. The note with it: Brucella abortus, read-out: MIC B. abortus.
Experiment [11] has as its system B. pseudomallei. Put plainly: microbe, parasite or virus in culture. In kind it is cell-based. As to conditions: Burkholderia pseudomallei, read-out: MIC B. pseudomallei.
For experiment [12], the system named is B. thailandensis E264. Nature of the experiment: microbe, parasite or virus in culture. It counts as cell-based, Burkholderia thailandensis. The note with it: Burkholderia thailandensis, E264, read-out: MIC B. thailandensis E264.
For experiment [13], the system named is A. baumannii ATCC 19606. Nature of the experiment: MIC, selected panel of Gram-positive and Gram-negative strains (Example 5). In kind it is cell-based, Acinetobacter baumannii. As to conditions: Acinetobacter baumannii, ATCC19606; read-out: MIC A. baumannii ATCC 19606.
For experiment [14], the system named is S. aureus ATCC 43300 (MRSA, FQ-S). Described as above. In kind it is cell-based, Staphylococcus aureus. The note with it: Staphylococcus aureus; read-out: MIC S. aureus ATCC 43300 (MRSA, FQ-S).
In experiment [15] the test system is GN31 Acinetobacter baumannii. Put plainly: Pre-chequerboard MIC, broth microdilution (Example 6). The note with it: antibiotic susceptible clinical isolate. It counts as cell-based.
Text: as §1, §2, §3

Experiment [16] concerns GN56 Acinetobacter baumannii. The description is as above. It counts as cell-based. The note with it: levofloxacin resistant clinical isolate.
Text: as §1, §2, §3

Experiment [17] deals with GN10 Pseudomonas aeruginosa. Put plainly: Chequerboard synergy with polymyxin B (FICI). It counts as cell-based. The note with it: combination with polymyxin B.
Text: as §1, §2, §3, §4, §5, §6, §7

The test system of experiment [18] is S. aureus ATCC 25923. Nature of the experiment: MIC, selected panel of Gram-positive and Gram-negative strains (Example 5). It counts as cell-based. The note with it: Staphylococcus aureus, ATCC25923; read-out: MIC S. aureus ATCC 25923.

As to `Cc1c(-c2ccc(N)cc2)c(F)cn2c(=O)c(C(=O)O)cc(C3CC3)c12` [Compound 7, 8-(4-amino-phenyl)-1-cyclopropyl-7-fluoro-9-methyl-4-oxo-quinolizine-3-carboxylic acid], in experiment [1], the MIC was 1 µg/mL (≈ 2.84 µM).

Regarding `Cc1c(-c2cc(F)c(N)cc2F)ccn2c(=O)c(C(=O)O)cc(C3CC3)c12` [Compound 2, 8-(3,6-difluoro-4-amino-phenyl)-1-cyclopropyl-9-methyl-4-oxo-quinolizine-3-carboxylic acid], the MIC in experiment [2] was less than 0.008 µg/mL; in experiment [3] it was less than 0.03 µg/mL; in [4], 1 µg/mL; in [5] it was 32 µg/mL; in [6], 8 µg/mL. In experiment [7], the Synergy entry was “partial synergy”.

Take `Cc1c(-c2ccc(N)c(F)c2)ccn2c(=O)c(C(=O)O)cc(C3CC3)c12` [Compound 1, 8-(3-fluoro-4-amino-phenyl)-1-cyclopropyl-9-methyl-4-oxo-quinolizine-3-carboxylic acid]: the MIC in experiment [8] is less than 0.008 µg/mL; in [9], less than 0.03 µg/mL; in [10], 0.125 µg/mL (≈ 0.355 µM); in experiment [11], 0.125 µg/mL (≈ 0.355 µM).

Consider `C[C@H]1COc2c(N3CCN(C)CC3)c(F)cc3c(=O)c(C(=O)O)cn1c23` [Levofloxacin, reference compound], for which the MIC was found to be 4 µg/mL (≈ 11.1 µM) in [12]; 0.5 µg/mL (≈ 1.38 µM) in experiment [13]; 0.25 µg/mL (≈ 0.692 µM) in [14]; 1 µg/mL in experiment [4]; 0.12 µg/mL in experiment [15]; 64 µg/mL in [5]. The MIC in experiment [16] was 32 µg/mL. Further, the “Interaction with polymyxin B, P. aeruginosa GN10” value in experiment [17] was “No interaction”.

Take `Cc1c(-c2ccc(CN)c(F)c2)ccn2c(=O)c(C(=O)O)cc(C3CC3)c12` [Compound 4, 8-(3-fluoro-4-aminomethyl-phenyl)-1-cyclopropyl-9-methyl-4-oxo-quinolizine-3-carboxylic acid]: the results for the MIC in experiment [12], in experiment [18] and in [14] were 1 µg/mL (≈ 2.73 µM), 0.064 µg/mL (≈ 0.175 µM) and 0.032 to 0.064 µg/mL (≈ 0.0873 to 0.175 µM), respectively.

As to `Cc1c(-c2ccc(N)cc2)ccn2c(=O)c(C(=O)O)cc(C3CC3)c12` [Compound 8, 8-(4-amino-phenyl)-1-cyclopropyl-9-methyl-4-oxo-quinolizine-3-carboxylic acid], the MIC in experiment [3] is less than 0.03 µg/mL.
